Experimental data as given in ChEMBL document CHEMBL1201862, “PubChem BioAssay data set” (2004).
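Cultured in 96-well plates, cells were exposed to test compound for 48 hours across five concentrations. GI50 = concentration required for 50% inhibition of growth.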 Activity calls are given as the source filed them. No stated cut-off is given here; in the data, active = GI50 up to about 1.1 µM and inactive = higher.

Tests used:
Test in all cases: NCI tumour cell line growth inhibition, 48 h
[1] = test system: DLD-1
[2] = test system: DMS-273
[3] = test system: HCT-15
[4] = test system: HOP-62
[5] = test system: HT-29
[6] = test system: NCI-H23
[7] = test system: NCI-H460
[8] = test system: OVCAR-8
[9] = test system: RPMI-8226
[10] = test system: SF-295
[11] = test system: SK-MEL-2
[12] = test system: SN12C
[13] = test system: SNB-19
[14] = test system: U-251
[15] = test system: M14
[16] = test system: OVCAR-4
[17] = test system: A498
[18] = test system: NCI-H522

SMILES	GI50 [1]	GI50 [2]	GI50 [3] [µM]	GI50 [4]	GI50 [5]	GI50 [6]	GI50 [7]	GI50 [8]	GI50 [9]	GI50 [10]	GI50 [11]	GI50 [12]	GI50 [13]	GI50 [14]	GI50 [15]	GI50 [16]	GI50 [17]	GI50 [18]
Cc1cc2c(C)n(Cc3ccccc3Cl)nc2c(C(=O)O)c1C	> 100 µM (inactive)	> 100 µM (inactive)	> 100	> 100 µM (inactive)	> 100 µM (inactive)	> 100 µM (inactive)	> 100 µM (inactive)	> 100 µM (inactive)	> 100 µM (inactive)	> 100 µM (inactive)	> 100 µM (inactive)	> 100 µM (inactive)	> 100 µM (inactive)	> 100 µM (inactive)	–	–	–	–
O=C(NC(=O)c1cn(CCN2CCN(C(=O)NCCCCCCNC(=O)N3CCN(CCn4cc(C(=O)NC(=O)OCc5ccccc5)c(=O)[nH]c4=O)CC3)CC2)c(=O)[nH]c1=O)OCc1ccccc1	> 100 µM (inactive)	> 100 µM (inactive)	> 100	> 100 µM (inactive)	> 100 µM (inactive)	> 100 µM (inactive)	> 100 µM (inactive)	> 100 µM (inactive)	> 100 µM (inactive)	> 100 µM (inactive)	–	> 100 µM (inactive)	> 100 µM (inactive)	> 100 µM (inactive)	> 100 µM (inactive)	> 100 µM (inactive)	–	–
COc1ccc2c3c([nH]c2c1[N+](=O)[O-])C(C)N(Cc1ccc([N+](=O)[O-])cc1)CC3 (stereo not drawn)	–	6.24 µM (inactive)	15.6	> 10 µM (inactive)	8.75 µM (inactive)	6.7 µM (inactive)	11.8 µM (inactive)	16.2 µM (inactive)	4.12 µM (inactive)	16.3 µM (inactive)	14.5 µM (inactive)	18.5 µM (inactive)	19.3 µM (inactive)	15.7 µM (inactive)	8.43 µM (inactive)	2.16 µM (inactive)	14.8 µM (inactive)	3.96 µM (inactive)
CC(=O)Nc1ccc(C(=O)N2N=C(C)/C(=C/c3cccc([N+](=O)[O-])c3)C2=O)cc1	> 100 µM (inactive)	> 100 µM (inactive)	–	> 100 µM (inactive)	> 100 µM (inactive)	> 100 µM (inactive)	> 100 µM (inactive)	> 100 µM (inactive)	> 100 µM (inactive)	> 100 µM (inactive)	–	> 100 µM (inactive)	> 100 µM (inactive)	–	> 100 µM (inactive)	> 100 µM (inactive)	–	> 100 µM (inactive)
C=C(C=O)CCCC(C)[C@@H]1CCC23CC12CCC1[C@@]2(C)CCC(OC(C)=O)C(C)(C)C2CC(OC2OC(COC(C)=O)C(O)C(O)C2O)[C@]13C (stereo partly drawn)	–	5.82 µM (inactive)	1.56	7.87 µM (inactive)	5.43 µM (inactive)	7.82 µM (inactive)	7.69 µM (inactive)	4.38 µM (inactive)	0.859 µM (active)	5.83 µM (inactive)	7.4 µM (inactive)	1.58 µM (inactive)	7.1 µM (inactive)	2.72 µM (inactive)	1.47 µM (inactive)	5.14 µM (inactive)	6.85 µM (inactive)	0.843 µM (active)
COc1cc2nc(Sc3c([N+](=O)[O-])ncn3C)[nH]c2cc1OC	14 µM (inactive)	1.65 µM (inactive)	19.4	> 100 µM (inactive)	41.7 µM (inactive)	26.1 µM (inactive)	49.9 µM (inactive)	15.1 µM (inactive)	22.3 µM (inactive)	> 100 µM (inactive)	–	16.3 µM (inactive)	26.1 µM (inactive)	31.3 µM (inactive)	87.5 µM (inactive)	38.5 µM (inactive)	78 µM (inactive)	–
